How the values were obtained:
FAK kinase = biological target: T1, FAK kinase (Homo sapiens, UniProt Q05397); test: ADP-Glo kinase enzymatic assay; format: biochemical; conditions: mean ± SD of three independent experiments
T1 construct: purchased Promega Corporation V9301
Procedure: The ADP-Glo™ Kinase Assay Kit and FAK Kinase Enzyme (Catalog. V9301) were purchased from Promega Corporation (Madison, WI, USA). The experiments were performed according to the detailed and complete protocols of the manufacturer. Briefly, the concentration of FAK determined by optimization experiments was 0.1 μg/μL. Suitable concentration gradients from 1.6 to 1000 nM were set for all the tested compounds. A kinase reaction buffer, a substrate/ATP mixture, and a FAK solution were prepared right before use. The 5 μL kinase reaction consisted of 1 μL of compound solution, 2 μL of substrate/ATP mixture, and 2 μL of FAK solution. The control without enzyme was provided by 3 μL of kinase reaction buffer and 2 μL of substrate/ATP mixture. The negative control was prepared using 1 μL of kinase reaction buffer instead of a compound solution. The kinase reactions were added to a 384-well plate and incubated at room temperature for 60 min, then 5 μL of ADP-Glo™ Reagent was added to stop the kinase reaction and deplete the unconsumed ATP, and incubated at room temperature for 40 min. After adding 10 μL of Kinase Detection Reagent, the plate was incubated at room temperature for 30 min and then luminescence was recorded (integration time 0.5–1 s) on a TriStar® LB942 Multimode Microplate Reader (BERTHOLD TECHNOLOGIES GmbH & Co. KG., Bad Wildbad, Germany). Curve fitting and data presentations were performed using GraphPad Prism version 8.0.

[1] = tested on: H1975 non-small cell lung cancer (NSCLC) cells; test: CCK-8 cell viability assay, H1975; format: cell-based; conditions: Homo sapiens, NCI-H1975, CCK-8, 72 h, mean ± SD of three experiments, read-out: Antiproliferative Activity IC50, H1975
Procedure: (§1) The H1975 human NSCLC cell line was obtained from ATCC. A431 human epithelial carcinoma and HBE human bronchial epithelial cell lines were kind gifts from Fuheng Biological Company Ltd. (Shanghai, China) and YuXi Biotech Company (Jiangsu, China), respectively. The cells were maintained in RPMI 1640 or DMEM (Gibco®, Thermo Fisher Scientific Inc., Waltham, MA, USA) containing 10% fetal bovine serum (FBS, Gibco®) and 1% penicillin-streptomycin (Beyotime Company, Shanghai, China) at 37 °C in a 5% CO2 incubator.
(§2) A total of 3000 cells of H1975 or HBE and 5000 cells of A431 were seeded for each well into a 96-well plate and cultured in 10% FBS respective growth medium overnight. Various concentrations (0–20 μM) of each compound were then added in triplicate to the cells. After 72 h of incubation, 10 μL of CCK-8 solution (5.0 mg/mL, Biotool Company, Kirchberg, Switzerland) was added to each well and the cells continued to culture for 4 h. The optical density (OD) was determined at 450 nm with a microplate reader (Thermo Fisher Scientific, Waltham, MA, USA). IC50 values were calculated employing GraphPad Prism version 8.0.

[2] = tested on: A431 human epithelial carcinoma cells; test: CCK-8 cell viability assay, A431; format: cell-based; conditions: A-431, CCK-8, 72 h, mean ± SD of three experiments, read-out: Antiproliferative Activity IC50, A431
Procedure: as §1, §2

[3] = tested on: normal human bronchial epithelial cells (HBE); test: CCK-8 cellular selectivity assay, HBE; format: cell-based
Procedure: as §1, §2

H1975 cells [4] = test: Annexin V-FITC/PI flow cytometry apoptosis assay; format: cell-based, human; conditions: H1975, 0.1, 0.5, 1 μM, 48 h
Procedure: (§3) H1975 cells were seeded at a density of 1 × 10^5 cells/well into 6-well plates for 24 h and then exposed to different concentrations of inhibitors for 48 h. The cells were harvested. (1) The cells were stained with Annexin V-FITC (5 µL)/propidium iodide (5 µL), and the samples were detected and flow cytometry (Becton-Dickinson, Franklin Lakes, NJ, USA) was performed to quantify the number of apoptotic cells. (2) The cells were stained with propidium iodide (PI) in the dark for 30 min, and then analyzed for cell cycle distribution by the flow cytometry assay.

H1975 cells [5] = test: Cell cycle analysis by PI flow cytometry; format: cell-based, human; conditions: 48 h
Procedure: as §3

H1975 cells [6] = test: Scratch (cell migration) assay; format: cell-based, human; conditions: H1975, 0.1, 0.5, and 1 μM, 24 h
Procedure: H1975 cells were seeded in 6-well plates and incubated for 12 h. When cells were grown to 90–100% confluency in a monolayer, wounds were generated using a pipette tip. […] The images were captured to record the status of cells near the scratch lines at the beginning and after 12 and 24 h.

H1975 cells [7] = test: AO/EB staining assay; format: cell-based, human; conditions: H1975, 0.1, 0.5, and 1 μM
Procedure: H1975 cells at a density of 1 × 10^5 cells/well in 6-well plates were incubated for 24 h. After discarding the original culture medium, different concentrations of inhibitors were used. The cells were incubated for 48 h and then washed with phosphate-buffered saline (PBS) three times. Cells were subsequently incubated in the dye mix containing 1.0 µg/mL of AO and 1.0 µg/mL of EB in PBS at 37 °C for 5 min, and then washed with PBS. The apoptotic, necrotic, and live cells were examined under the fluorescent inverted microscope (OLYMPUS, Tokyo, Japan).

T1 sequence (Q05397 393-698 limits assumed): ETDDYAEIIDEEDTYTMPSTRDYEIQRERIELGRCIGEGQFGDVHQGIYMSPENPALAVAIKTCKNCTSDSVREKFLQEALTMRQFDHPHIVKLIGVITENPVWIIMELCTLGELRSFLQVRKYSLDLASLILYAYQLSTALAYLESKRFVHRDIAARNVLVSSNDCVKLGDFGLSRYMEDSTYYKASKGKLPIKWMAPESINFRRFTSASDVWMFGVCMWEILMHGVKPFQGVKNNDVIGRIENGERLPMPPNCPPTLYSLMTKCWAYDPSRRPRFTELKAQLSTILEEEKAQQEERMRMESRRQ

Structure (SMILES): O=C(NCCO)c1ccccc1Nc1nc(Nc2ccc(CN3CCOCC3)cc2)ncc1Cl [Compound 8a, 2-((5-Chloro-2-((4-(morpholinomethyl)phenyl)amino)pyrimidin-4-yl)amino)-N-(2-hydroxyethyl)benzamide]
- IC50 (FAK kinase): 0.047 ± 0.006 µM
- IC50 [1]: 0.044 ± 0.011 µM
- IC50 [2]: 0.119 ± 0.036 µM
- IC50 ([3]; Homo sapiens, Epithelial cell, HBE normal cells, CCK-8, 72 h, mean ± SD of three experiments, read-out: Antiproliferative Activity IC50, HBE): 1.04 ± 0.266 µM
- SI Values (selectivity index) ([3]; IC50 for HBE cell line/IC50 for H1975 cell line): 24
- Apoptosis induction (in words) (H1975 cells [4]): substantially increased the extent of apoptosis in H1975 cells in a dose-dependent manner
- %G1 (G0/G1 phase) cells (H1975 cells [5]; H1975, 1.0 μM): 39.06%
- %G2 (G2/M phase) cells (H1975 cells [5]; H1975, 1.0 μM): 37.29%
- %S phase cells (H1975 cells [5]; H1975, 1.0 μM): 23.65%
- Cell cycle arrest (in words) (H1975 cells [5]; H1975, 0.1, 0.5, and 1 μM): induced cell cycle arrest in S/G2 phase in a dose-dependent manner
- Cell migration (in words) (H1975 cells [6]): reduced migration distances
- Apoptotic morphology (in words) (H1975 cells [7]): exhibited certain morphological phenomena characteristic of apoptosis

Source: article PMC8304610, “Discovery of Novel 2,4-Dianilinopyrimidine Derivatives Containing 4-(Morpholinomethyl)phenyl and N-Substituted Benzamides as Potential FAK Inhibitors and Anticancer Agents” (Molecules, 2021)
